The test system of this assay is general heterotrophic bacteria (GHB). The conditions noted are these: iron sulphide present; same level of THPS as the control.

On to “tetrakis (hydroxymethyl) phosphonium sulphate [THPS]”, for which the “bacterial kill (reduction in colony forming units per ml) versus control sample without iron sulphide” value is “bacterial kill is still achieved”.

For the origin of these results see patent US20200032125A1, “COMBINED USES OF A PHOSPHOROUS COMPOUND FOR IRON SULPHIDE DISSOLUTION AND BACTERIAL CONTROL” (RHODIA OPERATIONS, priority 2016, published 2020).
